Assay results: ChEMBL document CHEMBL4130489, “Triclosan-caffeic acid hybrids: Synthesis, leishmanicidal, trypanocidal and cytotoxic activities” (Eur J Med Chem, 2017)
In brackets after ≈: the same amount, converted by molar mass.

Tests used:
[1] = Cytotoxicity in human U937 cells assessed as reduction in cell viability incubated for 72 hrs by MTT assay; type: cell-based, U-937; settings: read-out: LC50
[2] = tested on: Leishmania panamensis; assay: Antileishmanial activity against GFP-tagged Leishmania panamensis MHOM/CO/87/UA140 intracellular amastigotes infected in human U937 cells incubated for 72 hrs by flow cytometry; type: functional, organism-based; settings: MHOM/CO/87/UA140, U-937, 72 h
[3] = tested on: Trypanosoma cruzi; assay: Antitrypanosomal activity against Trypanosoma cruzi Tulahuen intracellular amastigotes transfected with beta-galactosidase infected in human U937 cells incubated for 72 hrs by spectrophotometry; type: functional, organism-based; settings: U-937, 72 h
[4] = Selectivity index, ratio of LC50 for cytotoxicity in human U937 cells to EC50 for antileishmanial activity against GFP-tagged Leishmania panamensis MHOM/CO/87/UA140 intracellular amastigotes infected in human U937 cells; type: toxicity, cell-based
[5] = Selectivity index, ratio of LC50 for cytotoxicity in human U937 cells to EC50 for antitrypanosomal activity against Trypanosoma cruzi Tulahuen intracellular amastigotes transfected with beta-galactosidase infected in human U937 cells; type: toxicity, cell-based
[6] = tested on: Leishmania panamensis; assay: Antileishmanial activity against Leishmania panamensis axenic amastigotes; type: functional, organism-based
[7] = tested on: Leishmania panamensis; assay: Antileishmanial activity against GFP-tagged Leishmania panamensis MHOM/CO/87/UA140 amastigotes infected in human U937 cells incubated for 72 hrs by flow cytometry; type: functional, organism-based; settings: MHOM/CO/87/UA140, U-937, 72 h
[8] = Cytotoxicity in human U937 cells; type: cell-based, U-937; settings: read-out: LC50 (the source's name)
[9] = tested on: Trypanosoma brucei; assay: Antitrypanosomal activity against Trypanosoma brucei bloodstream forms; type: functional
[10] = tested on: Trypanosoma cruzi; assay: Antitrypanosomal activity against Trypanosoma cruzi; type: functional, organism-based
[11] = tested on: Leishmania major; assay: Antileishmanial activity against Leishmania major promastigotes; type: functional, organism-based

SMILES	CC50 at 72 h [1]	EC50 [2]	EC50 ([3]; read-out: EC50)	selectivity ratio [4]	selectivity ratio [5]	other results
COc1ccc(/C=C/C(=O)OCCCCCCCCCOc2cc(Cl)ccc2Oc2ccc(Cl)cc2Cl)cc1OC	107 µM	48.5 µM	33 µM	2.21	3.24	–
O=C(/C=C/c1ccc(O)c(O)c1)OCCCCOc1cc(Cl)ccc1Oc1ccc(Cl)cc1Cl	12 µM	3.82 µM	8.25 µM	3.16	1.46	–
O=C(/C=C/c1ccc(O)c(O)c1)OCCCCCCCOc1cc(Cl)ccc1Oc1ccc(Cl)cc1Cl	20 µM	11.7 µM	8.69 µM	1.72	2.29	–
Oc1cc(Cl)ccc1Oc1ccc(Cl)cc1Cl [TRICLOSAN]	[…]	–	49 µM	[…]	[…]	–
CCCCCCCCOC(=O)/C=C/c1ccc(O)c(O)c1	–	–	–	–	–	EC50 [6]: 0.67 µM
COc1ccc(/C=C/C(=O)c2ccc(OCCCCOc3cc(Cl)ccc3Oc3ccc(Cl)cc3Cl)cc2)cc1OC	–	–	–	–	–	EC50 [7]: 10.2 µg/mL (≈ 16.2 µM); CC50 [8]: > 200 µg/mL
O=C(/C=C/c1ccc(O)c(O)c1)OCCCCCCCCCCCCOc1cc(Cl)ccc1Oc1ccc(Cl)cc1Cl	174 µM	42.6 µM	34.2 µM	4.08	5.08	–
COc1ccc(/C=C/C(=O)OCCCOc2cc(Cl)ccc2Oc2ccc(Cl)cc2Cl)cc1OC	> 372 µM	38.1 µM	> 37.2 µM	> 9.77	< 10	–
CC(C)CCOC(=O)/C=C/c1ccc(O)c(O)c1	–	–	–	–	–	MIC [9]: 0.31 µg/mL (≈ 1.24 µM)
O=C(/C=C/c1ccc(O)c(O)c1)OCCCOc1cc(Cl)ccc1Oc1ccc(Cl)cc1Cl	> 392 µM	24.3 µM	52.4 µM	> 16.1	> 7.48	–
COc1ccc(CCC(=O)OCCCOc2cc(Cl)ccc2Oc2ccc(Cl)cc2Cl)cc1OC	250 µM	40.2 µM	33.3 µM	6.2	7.49	–
O=C(/C=C/c1ccc(O)c(O)c1)O[C@@H]1[C@H](O)C[C@@](O)(C(=O)O)C[C@H]1OC(=O)/C=C/c1ccc(O)c(O)c1	–	–	–	–	–	IC50 [10]: 286 µM
COc1ccc(/C=C/C(=O)c2ccc(OCCCOc3cc(Cl)ccc3Oc3ccc(Cl)cc3Cl)cc2)cc1OC	–	–	–	–	–	EC50 [7]: 9.4 µg/mL (≈ 15.3 µM); CC50 [8]: > 200 µg/mL
O=C(/C=C/c1ccc(O)c(O)c1)OCCCCCCCCOc1cc(Cl)ccc1Oc1ccc(Cl)cc1Cl	40.2 µM	12.9 µM	18.4 µM	3.11	2.19	–
O=C(Cn1ccnc1[N+](=O)[O-])NCc1ccccc1 [BENZNIDAZOLE]	–	–	–	–	17	EC50 [3]: 40.3 µM
CC1(C)C2CCC1(C)[C@H](OC(=O)/C=C/c1ccc(O)c(O)c1)C2 (some centres not stated)	–	–	–	–	–	IC50 [11]: 48.8 µM
C[C@@H]1[C@H](O)[C@@H](C)/C=C/C=C/C=C/C=C/C=C/C=C/C=C/[C@H](O[C@@H]2O[C@H](C)[C@@H](O)[C@H](N)[C@@H]2O)C[C@@H]2O[C@](O)(C[C@@H](O)C[C@@H](O)[C@H](O)CC[C@@H](O)C[C@@H](O)CC(=O)O[C@H]1C)C[C@H](O)[C@H]2C(=O)O [AMPHOTERICIN B]	–	–	–	842	–	–
COc1ccc(/C=C/C(=O)c2ccc(OCCCCCOc3cc(Cl)ccc3Oc3ccc(Cl)cc3Cl)cc2)cc1OC	–	–	–	–	–	EC50 [7]: 13.5 µg/mL (≈ 21 µM); CC50 [8]: > 200 µg/mL
O=C(O)/C=C/c1ccc(O)c(O)c1 [CAFFEIC ACID]	1110 µM	1100 µM	157 µM	> 1	> 7.07	–
O=C(/C=C/c1ccc(O)c(O)c1)OCCCCCOc1cc(Cl)ccc1Oc1ccc(Cl)cc1Cl	8.18 µM	15.3 µM	29.7 µM	0.53	0.28	–
COc1ccc(/C=C/C(=O)OCCCCOc2cc(Cl)ccc2Oc2ccc(Cl)cc2Cl)cc1OC	73.4 µM	53.2 µM	42.8 µM	1.38	1.72	–
COc1ccc(/C=C/C(=O)OCCCCCCCOc2cc(Cl)ccc2Oc2ccc(Cl)cc2Cl)cc1OC	337 µM	99 µM	27.4 µM	> 3.4	> 12.3	–
O=C(/C=C/c1ccc(O)c(O)c1)OCCCCCCCCCOc1cc(Cl)ccc1Oc1ccc(Cl)cc1Cl	3.62 µM	30.2 µM	41.3 µM	0.12	0.09	–
